Strand notation (5' to 3'): a small letter for the sugar, then the base; units joined by * are phosphorothioate-linked, units joined directly phosphodiester-linked; [ ] holds rarer units or linkages, { } end groups; capitals alone tell only the bases. e = 2'-O-(2-methoxyethyl) (MOE); [5mC] = 5-methylcytosine; d = 2'-deoxy (DNA)
System: human SMAD7 mRNA
Test: Antisense inhibition of human SMAD7 mRNA expression in Hep3B cells by 5-10-5 MOE gapmers, single concentration, electroporation, RT-PCR (Example 1, Study 1 and 2)
Assay type: cell-based
Protocol: Antisense oligonucleotides were designed to target human SMAD7 mRNA and were tested for their effects on SMAD7 mRNA expression in vitro. Cultured Hep3B cells at a density of 20,000 cells per well were transfected using electroporation with antisense oligonucleotide ION 483663 (a 5-10-5 MOE gapmer), the sequence of which overlaps with ION 28453 (a 4-10-4 MOE gapmer) was included in these assays for comparison. ION 28453 has been previously disclosed in U.S. Pat. No. 6,159,697). After a treatment period of approximately 24 hours, RNA was isolated from the cells and SMAD7 mRNA levels were measured by quantitative real-time PCR. Primer probe set RTS5062 (forward sequence […], designated herein as SEQ ID NO: 11; reverse sequence […], designated herein as SEQ ID NO: 12; probe sequence […], designated herein as SEQ ID NO: 13) was used to measure human SMAD7 mRNA levels. SMAD7 mRNA levels were adjusted according to total RNA content, as measured by RIBOGREEN®. Results are presented as percent inhibition of SMAD7 mRNA expression, relative to untreated control cells.
The newly designed chimeric antisense oligonucleotides in the Tables below were designed as 5-10-5 MOE gapmers. The gapmers are 20 nucleosides in length, wherein the central gap segment comprises of ten 2′-deoxynucleosides and is flanked by wing segments on the 5′ direction and the 3′ direction comprising five nucleosides each. Each nucleoside in the 5′ wing segment and each nucleoside in the 3′ wing segment has a 2′-MOE modification. The internucleoside linkages throughout each gapmer are phosphorothioate (P═S) linkages. All cytosine residues throughout each gapmer are 5-methylcytosines.
“Start site” indicates the 5′-most nucleoside to which the gapmer is targeted in the human gene sequence. “Stop site” indicates the 3′-most nucleoside to which the gapmer is targeted human gene sequence.
Cultured Hep3B cells at a density of 20,000 cells per well were transfected using electroporation with 5,000 nM antisense oligonucleotide.
Cultured Hep3B cells at a density of 20,000 cells per well were transfected using electroporation with 15,000 nM antisense oligonucleotide. The antisense oligonucleotides were tested in a series of experiments that had similar culture conditions as described below.
Some of the oligonucleotides presented were complementary to SMAD7 mRNA sequences RefSeqNo. NM_001190821.1 (designated herein as SEQ ID NO: 3) or RefSeqNo. NM_001190822.1 (designated herein as SEQ ID NO: 4), and are presented in a separate table shown below.

[1] = Study 2, electroporation with 15,000 nM antisense oligonucleotide, 5-10-5 MOE gapmers targeting SEQ ID NO: 1 and 2
[2] = electroporation, 15,000 nM antisense oligonucleotide (Study 2), 5-10-5 MOE gapmers targeting SEQ ID NO: 1 and 2
[3] = electroporation with 15,000 nM antisense oligonucleotide (Study 2), 5-10-5 MOE gapmers targeting SEQ ID NO: 1 and 2
[4] = electroporation, 5,000 nM, approximately 24 hours, relative to untreated control cells, gapmers targeting SEQ ID NO: 1 and 2
[5] = electroporation, 15,000 nM, approximately 24 hours, relative to untreated control cells, gapmers targeting SEQ ID NO: 1 and 2

Substance | % Inhibition [1] [%] | % inhibition of SMAD7 mRNA expression [2] [%] | also measured
771716 (antisense eT*e[5mC]*eG*eA*eA*dT*d[5mC]*dA*d[5mC]*d[5mC]*d[5mC]*dT*dT*dT*d[5mC]*e[5mC]*eA*eT*eT*eA) [compound 771716] | 24 | – | –
771862 (antisense eT*e[5mC]*eT*eT*e[5mC]*d[5mC]*d[5mC]*d[5mC]*dA*dG*dA*dA*dA*dA*d[5mC]*eA*eG*e[5mC]*e[5mC]*e[5mC]) [compound 771862] | 10 | – | –
771785 (antisense eA*e[5mC]*eT*eT*eT*dG*dA*dA*dG*d[5mC]*d[5mC]*dT*dT*dT*dG*eG*eA*eA*eT*eT) [compound 771785] | – | 12 | –
771696 (antisense e[5mC]*eT*e[5mC]*eT*e[5mC]*d[5mC]*d[5mC]*dA*dG*dG*dA*dG*dG*dG*dT*eA*eT*eG*e[5mC]*eA) [compound 771696] | – | 0 | % Inhibition of SMAD7 mRNA [3]: 0%
771868 (antisense eG*eG*eA*eG*eG*d[5mC]*dA*dA*dA*dT*dT*d[5mC]*dA*dT*dA*eG*eA*e[5mC]*eA*eG) [compound 771868] | 16 | – | –
771466 (antisense eA*eA*eG*eA*eT*dA*dT*d[5mC]*d[5mC]*dA*dG*dA*dG*dA*dG*eG*eG*e[5mC]*eT*e[5mC]) [compound 771466] | – | 38 | –
771366 (antisense eT*eG*e[5mC]*eT*eG*dA*dT*dT*dA*dT*dT*dA*dA*dT*dG*eG*eT*e[5mC]*eT*eG) [compound 771366] | 0 | – | % inhibition of SMAD7 mRNA expression [4]: 49%
771877 (antisense eT*eG*e[5mC]*eA*eG*dG*dA*dT*d[5mC]*d[5mC]*dG*dA*dT*dG*dG*eA*eA*eA*eA*eG) [compound 771877] | – | – | % inhibition of SMAD7 mRNA expression [5]: 24%
771856 (antisense e[5mC]*eT*eG*eA*eA*dA*dG*dA*dA*dA*dG*dT*d[5mC]*d[5mC]*d[5mC]*eG*eA*e[5mC]*eT*eT) [compound 771856] | – | 34 | % Inhibition of SMAD7 mRNA [3]: 35%
771779 (antisense eA*e[5mC]*eA*e[5mC]*eA*d[5mC]*dT*dG*d[5mC]*dT*dG*d[5mC]*d[5mC]*dT*dT*eT*eT*e[5mC]*eT*e[5mC]) [compound 771779] | 33 | – | % inhibition of SMAD7 mRNA expression [4]: 53%
771853 (antisense eA*eG*e[5mC]*eT*eT*dG*dG*dA*dA*dG*d[5mC]*d[5mC]*dA*dT*d[5mC]*eG*eG*eT*eT*eG) [compound 771853] | – | – | % inhibition of SMAD7 mRNA expression [5]: 36%
771522 (antisense eG*e[5mC]*eA*eT*eG*dA*dA*dA*dA*dG*d[5mC]*dA*dA*dG*d[5mC]*eA*e[5mC]*eT*e[5mC]*eA) [compound 771522] | – | 29 | –
771615 (antisense eA*eG*e[5mC]*eT*eG*dG*dT*dT*dT*dT*d[5mC]*dT*dA*dA*dG*eT*e[5mC]*e[5mC]*eG*eG) [compound 771615] | – | – | % inhibition of SMAD7 mRNA expression [1]: 45%
771668 (antisense e[5mC]*eT*e[5mC]*eT*e[5mC]*dA*dA*dA*dG*d[5mC]*dA*d[5mC]*dT*dA*d[5mC]*eA*eA*eT*eG*e[5mC]) [compound 771668] | – | – | % inhibition of SMAD7 mRNA expression [1]: 9%
582468 (antisense eG*e[5mC]*e[5mC]*eA*eA*dT*dA*dT*d[5mC]*dA*dT*dA*dA*d[5mC]*d[5mC]*e[5mC]*eA*eA*eG*e[5mC]) [compound 582468] | – | – | % inhibition of SMAD7 mRNA expression [1]: 4%; % inhibition of SMAD7 mRNA expression [3]: 0%
771855 (antisense eT*e[5mC]*e[5mC]*e[5mC]*eG*dA*d[5mC]*dT*dT*dT*dG*d[5mC]*dA*dA*dG*eA*eT*eG*eA*eA) [compound 771855] | 38 | – | –
771729 (antisense eT*eG*e[5mC]*eT*e[5mC]*d[5mC]*dA*dG*d[5mC]*dT*d[5mC]*d[5mC]*dA*dG*dA*e[5mC]*e[5mC]*eT*eG*eG) [compound 771729] | – | 35 | –
771620 (antisense e[5mC]*eA*e[5mC]*eA*e[5mC]*dA*dG*dG*dA*dT*dG*dG*dG*dA*dG*e[5mC]*eA*eG*eG*e[5mC]) [compound 771620] | – | – | % inhibition of SMAD7 mRNA expression [1]: 12%
